One series addresses T1, human CYP11B2 (Homo sapiens, UniProt P19099).
T1 construct: expressed in transfected cells; host or cells: human renal leiomyoma G402 cells (monoclonal)
T1 sequence (P19099 25-503): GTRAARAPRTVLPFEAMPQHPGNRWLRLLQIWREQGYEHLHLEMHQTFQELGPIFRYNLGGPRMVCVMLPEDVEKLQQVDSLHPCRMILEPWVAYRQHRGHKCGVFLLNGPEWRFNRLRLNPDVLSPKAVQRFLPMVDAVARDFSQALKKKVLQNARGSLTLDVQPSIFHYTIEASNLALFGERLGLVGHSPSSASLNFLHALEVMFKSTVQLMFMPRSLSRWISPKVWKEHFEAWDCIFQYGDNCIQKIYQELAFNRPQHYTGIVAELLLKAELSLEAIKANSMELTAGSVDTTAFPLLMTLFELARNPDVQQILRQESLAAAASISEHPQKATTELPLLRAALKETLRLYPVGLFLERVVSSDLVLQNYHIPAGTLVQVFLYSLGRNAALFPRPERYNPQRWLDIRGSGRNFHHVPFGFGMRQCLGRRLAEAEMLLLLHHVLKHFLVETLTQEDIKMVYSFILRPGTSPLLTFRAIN
Briefly: In vitro activity assay of monoclonal cells overexpressing human CYP11B2. The conditions noted are these: G402 cells overexpressing human CYP11B2; 1 µM 11-deoxycorticosterone, 16 hours; aldosterone by LC-MS/MS. Type of series: cell-based. As for the experimental part: The human renal leiomyoma G402 cell line overexpressing human CYP11B2 was selected to serve as a compound activity screening system. Table 1: Cell and reagent information
2) Compound details: The test compound was prepared as a 10 µM working concentration using DMSO. 3) Experimental procedure
Day 1: Cells were digested, and human renal leiomyoma G402 cells overexpressing human CYP11B2 were resuspended to 1×10^5 cells/mL, with 100 µL seeded into a 96-well plate.
(§1) Day 3: The cell supernatant was collected and added to 200 µL of a methanol solution containing internal standards (internal standards: 35 ng/mL ketoprofen or 7.5 ng/mL carbamazepine or 5 ng/mL diphenhydramine or 10 ng/mL tolbutamide). The mixture was vortexed and centrifuged (4000×g, 4°C, 5 minutes). Then, 100 µL of the supernatant was taken and mixed with 100 µL of pure water.
Ratio = Aldosterone peak area/Internal standard peak area [formula] Control activity% = (Ratiotestcompound/RatioDMSO) × 100% [formula]
(§2) "Ratio test compound" represents the Ratio values at different concentrations of the test compound.
(§3) "Ratio DMSO" represents the Ratio value without the addition of the test compound. • X = Log (compound concentration) • Y = Control activity%
The IC50 of the test compound was determined by fitting to a nonlinear regression equation using XLfit 5.5.0. Table 3: Results for in vitro activity assay of monoclonal cells overexpressing human CYP11B2

The target in another series is T2, human CYP11B1 (Homo sapiens, UniProt P15538).
T2 construct: expressed in transfected cells; host or cells: human renal leiomyoma G402 cells (monoclonal)
T2 sequence (P15538 25-503): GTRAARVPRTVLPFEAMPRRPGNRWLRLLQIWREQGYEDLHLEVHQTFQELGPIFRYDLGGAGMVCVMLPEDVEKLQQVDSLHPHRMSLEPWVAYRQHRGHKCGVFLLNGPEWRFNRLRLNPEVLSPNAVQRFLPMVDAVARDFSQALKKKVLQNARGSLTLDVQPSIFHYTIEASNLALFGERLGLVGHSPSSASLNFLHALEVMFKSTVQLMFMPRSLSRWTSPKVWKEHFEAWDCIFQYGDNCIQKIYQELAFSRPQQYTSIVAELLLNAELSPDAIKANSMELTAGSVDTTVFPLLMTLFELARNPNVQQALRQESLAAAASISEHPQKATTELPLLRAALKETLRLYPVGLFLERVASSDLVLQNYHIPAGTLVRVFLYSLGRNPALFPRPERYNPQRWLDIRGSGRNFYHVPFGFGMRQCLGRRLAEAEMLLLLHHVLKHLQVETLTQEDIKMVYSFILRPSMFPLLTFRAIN
Briefly: In vitro activity assay of monoclonal cells overexpressing human CYP11B1. The conditions noted are these: G402 cells overexpressing human CYP11B1; 1 µM 11-deoxycortisol, 16 hours; cortisol by LC-MS/MS. Type of series: cell-based. As for the experimental part: The human renal leiomyoma G402 cell line overexpressing human CYP11B1 was selected to serve as a compound selectivity screening system.
Day 1: Cells were digested, and human renal leiomyoma G402 cells overexpressing CYP11B1 were resuspended to 1×10^5 cells/mL, with 100 µL seeded into a 96-well plate.
as §1
Ratio = Cortisol peak area/Internal standard peak area [formula] Control activity% = (Ratiotestcompound/RatioDMSO) × 100% [formula]
as §2, §3
The IC50 of the test compound was determined by fitting to a nonlinear regression equation using XLfit 5.5.0. Table 4: Results for in vitro activity assay of monoclonal cells overexpressing human CYP11B1

Series [1] in a line: Permeability test (MDR1-MDCKII monolayer, bidirectional transport). Type of series: in vitro ADME. The conditions noted are these: dog; for efflux ratio at 2.5 h, 2 µM: MDCK-MDR1, pH 7.4, ER = Papp (BA)/ Papp (AB); for Papp A→B at 2.5 h, 2 µM: MDCK-MDR1, pH 7.4, pH 7.40, 2.5 hours, A to B, read-out: Apparent permeability coefficient (Papp (AB), 10^-6 cm/s). The method, then:
Experimental objective: The permeability and efflux ratio of the compound of the present disclosure were determined using the MDR1-MDCKII monolayer cell model to assess its membrane permeability and potential for P-gp-mediated efflux transport.
Experimental protocol: MDR1-MDCKII cells (obtained from the Netherlands Cancer Institute) were seeded in 96-well plates (obtained from Corning) at a cell density of 3.33 × 10^5 cells/mL and cultured for 4 to 7 days to form confluent cell monolayers. Hank's balanced salt solution containing 10 mM HEPES (pH 7.40) was used as the transport buffer. The test compound was evaluated for bidirectional transport at a concentration of 2 µM, with the DMSO concentration in the incubation system maintained below 1%. After adding the samples, the cell plate was incubated at 37±1°C, 5% CO2, and saturated humidity for 2.5 hours. All samples were quantitatively analyzed using the LC-MS/MS method. The apparent permeability coefficient (Papp, cm/s) and efflux ratio (ER) were calculated using the following formula. Apparent permeability coefficient (Papp, cm/s) was calculated using the following formula: Papp = (dCr/dt) x Vr / (A x C0). Herein, dCr/dt represents the cumulative concentration of the compound at the receiving end per unit time (µM/s); Vr is the volume of the solution at the receiving end (with solution volumes at the apical and basolateral ends being 0.075 mL and 0.250 mL, respectively); A is the relative surface area of the cell monolayer (0.143 cm^2); C0 is the initial concentration of the test substance at the dosing end (µM) or the peak area ratio of the reference substance. The efflux ratio was calculated using the following formula: ER = Papp (BA)/ Papp (AB). Table 7: Permeability test results of compounds

A short description of the next series: in vivo. The conditions noted are these: cynomolgus monkey, po.
The nature of series [2]: in vitro. The conditions noted are these: human, microsomes.
Series [3] in a line: in vitro. Particulars: rat, plasma.
The nature of series [4]: in vitro. Particulars: cynomolgus monkey, plasma.
Series [5] can be described thus: in vitro. The conditions noted are these: human, plasma.

Compound `CCC(=O)NC1CCCc2c(-c3cc(F)c4c(ccc(=O)n4C)c3)cncc21` (single isomer, unassigned) [Compound 018] came in with an IC50 against human CYP11B2 of 20.7 nM. On human CYP11B1, this compound displayed a 50% inhibitory concentration (IC50) of 3810 nM. For the same compound, in series [1], the efflux ratio at 2.5 h, 2 µM worked out at 1.32 and the Papp A→B at 2.5 h, 2 µM worked out at 24.6 ×10⁻⁶ cm/s. In “in vivo” (1 mg/kg), this compound had an AUC(0-t) at 24 h of 7.59 µM·h, a Cmax of 1310 nM and a half-life of 5.35 h. Further, the CLint scaled at 1 µM in “in vitro [2]” was under 8.6 mL/min/kg. Further, in the series “in vitro [3]”, the fraction unbound at 4 h, 2 µM was 0.08. The fraction unbound at 4 h, 2 µM in the series “in vitro [4]” was 0.205. The same compound showed a fraction unbound at 4 h, 2 µM in “in vitro [5]” of 0.191.

`CCC(=O)NC1CCCc2c(-c3cc4ccc(=O)n(C)c4cc3F)cncc21` (single isomer, unassigned) [Compound 019]: at human CYP11B2, the IC50 came to 17.3 nM. The compound also gave an IC50 against human CYP11B1 of 1680 nM. Moreover, in series [1], the efflux ratio at 2.5 h, 2 µM was determined as 1.55 and the Papp A→B at 2.5 h, 2 µM came out at 21.5 ×10⁻⁶ cm/s. Further, in “in vivo” (3 mg/kg), the AUC(0-t) at 24 h stood at 23.9 µM·h, the peak level (Cmax) was 3800 nM, the bioavailability is 113% and the half-life was 4.65 h. This compound returned a CLint scaled at 1 µM in “in vitro [2]” of under 8.6 mL/min/kg. Further, in “in vitro [3]”, the fraction unbound at 4 h, 2 µM was 0.129. Further, the fraction unbound at 4 h, 2 µM in “in vitro [4]” is 0.248. This compound showed a fraction unbound at 4 h, 2 µM in “in vitro [5]” of 0.238.

By IC50 is commonly meant the point on the concentration scale where inhibition reaches its midpoint. As a reminder, the efflux ratio is a quotient of directional permeabilities that is used to spot active efflux. By AUC(0-t) is commonly meant the area under the concentration-time curve up to a stated or last time point. For orientation: Cmax means the maximum level reached in the sampled fluid or tissue. As usually defined, the half-life is the time in which the quantity being followed falls by half. A word on the CLint scaled: it is the rate of metabolic loss divided by the concentration. One may read the fraction unbound as free concentration divided by total concentration. Higher therefore signals much free substance.

The record behind these values is patent publication EP4711361A1, “NITROGEN-CONTAINING HETEROCYCLIC COMPOUND AND USE THEREOF” (Jiangsu Deyuan Pharmaceutical Co.,Ltd., priority 2023, dated 2024).
